Source: ChEMBL document CHEMBL4431366, “Identification of a benzo imidazole thiazole derivative as the specific irreversible inhibitor of protein tyrosine phosphatase” (Bioorg Med Chem Lett, 2016)
Each block holds one compound with its values, some of them ahead of it. Activity calls are given as the source filed them. No cut-off for these calls is given here.

Columns and labels:
[1] = molecular target: T1, Tyrosine-protein phosphatase non-receptor type 5 (Homo sapiens, UniProt P54829); test: (§1) Inhibition of N-terminal His-tagged STEP catalytic domain (unknown origin) expressed in Escherichia coli BL21 (DE3) cells using p-nitrophenyl phosphate as substrate
T1 sequence (P54829 whole entry): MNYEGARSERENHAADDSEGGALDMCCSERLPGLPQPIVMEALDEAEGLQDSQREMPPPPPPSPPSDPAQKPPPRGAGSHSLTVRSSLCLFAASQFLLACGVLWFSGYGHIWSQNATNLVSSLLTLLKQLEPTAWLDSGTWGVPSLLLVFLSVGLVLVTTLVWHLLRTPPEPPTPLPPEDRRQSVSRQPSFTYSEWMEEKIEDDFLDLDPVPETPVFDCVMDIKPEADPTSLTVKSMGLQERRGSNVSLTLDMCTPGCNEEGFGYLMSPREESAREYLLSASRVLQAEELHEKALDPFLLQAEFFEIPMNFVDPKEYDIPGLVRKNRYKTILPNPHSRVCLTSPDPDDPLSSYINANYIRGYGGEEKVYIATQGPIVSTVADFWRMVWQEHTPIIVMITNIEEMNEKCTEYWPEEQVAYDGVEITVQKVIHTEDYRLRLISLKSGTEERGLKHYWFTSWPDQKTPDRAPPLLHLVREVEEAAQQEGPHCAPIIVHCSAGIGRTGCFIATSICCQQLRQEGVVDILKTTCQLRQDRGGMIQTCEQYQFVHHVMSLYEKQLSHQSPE

[2] = molecular target: T2, Tyrosine-protein phosphatase non-receptor type 5 (Homo sapiens) (UniProt P54829); test: as §1
T2 sequence (whole entry): T1 sequence (P54829 whole entry)

[3] = molecular target: T3, Tyrosine-protein phosphatase non-receptor type 22 (Homo sapiens) (UniProt Q9Y2R2); test: Time-dependent irreversible inhibition of N-terminal His-tagged LYP (1 to 294 residues) (unknown origin) expressed in Escherichia coli BL21 (DE3) cells preincubated with enzyme followed by p-nitrophenyl phosphate substrate addition
T3 sequence (whole entry): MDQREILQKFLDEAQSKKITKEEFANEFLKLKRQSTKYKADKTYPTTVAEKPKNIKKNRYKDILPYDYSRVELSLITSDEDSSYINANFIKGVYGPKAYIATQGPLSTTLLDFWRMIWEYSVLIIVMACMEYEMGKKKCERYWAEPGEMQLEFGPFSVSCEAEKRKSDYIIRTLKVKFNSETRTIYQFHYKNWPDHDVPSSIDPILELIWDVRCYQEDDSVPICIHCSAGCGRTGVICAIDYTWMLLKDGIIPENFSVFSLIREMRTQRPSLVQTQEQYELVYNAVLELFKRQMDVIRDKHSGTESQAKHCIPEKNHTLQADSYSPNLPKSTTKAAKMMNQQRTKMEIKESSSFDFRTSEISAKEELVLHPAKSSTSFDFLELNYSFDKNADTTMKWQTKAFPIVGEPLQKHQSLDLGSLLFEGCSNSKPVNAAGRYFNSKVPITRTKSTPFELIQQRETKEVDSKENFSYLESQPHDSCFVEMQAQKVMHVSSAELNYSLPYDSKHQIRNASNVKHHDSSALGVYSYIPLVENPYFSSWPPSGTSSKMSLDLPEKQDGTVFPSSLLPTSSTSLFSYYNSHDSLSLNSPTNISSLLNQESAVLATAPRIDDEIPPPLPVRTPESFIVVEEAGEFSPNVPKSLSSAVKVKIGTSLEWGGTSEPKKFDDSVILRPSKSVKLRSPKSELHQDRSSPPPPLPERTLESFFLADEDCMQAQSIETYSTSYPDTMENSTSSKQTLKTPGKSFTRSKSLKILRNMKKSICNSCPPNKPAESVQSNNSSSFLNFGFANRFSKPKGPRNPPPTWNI

[4] = molecular target: T4, Tyrosine-protein phosphatase non-receptor type 9 (Homo sapiens) (UniProt P43378); test: Time-dependent irreversible inhibition of N-terminal His-tagged MEG2 (277 to 583 residues) (unknown origin) expressed in Escherichia coli BL21 (DE3) cells preincubated with enzyme followed by p-nitrophenyl phosphate substrate addition
T4 sequence (whole entry): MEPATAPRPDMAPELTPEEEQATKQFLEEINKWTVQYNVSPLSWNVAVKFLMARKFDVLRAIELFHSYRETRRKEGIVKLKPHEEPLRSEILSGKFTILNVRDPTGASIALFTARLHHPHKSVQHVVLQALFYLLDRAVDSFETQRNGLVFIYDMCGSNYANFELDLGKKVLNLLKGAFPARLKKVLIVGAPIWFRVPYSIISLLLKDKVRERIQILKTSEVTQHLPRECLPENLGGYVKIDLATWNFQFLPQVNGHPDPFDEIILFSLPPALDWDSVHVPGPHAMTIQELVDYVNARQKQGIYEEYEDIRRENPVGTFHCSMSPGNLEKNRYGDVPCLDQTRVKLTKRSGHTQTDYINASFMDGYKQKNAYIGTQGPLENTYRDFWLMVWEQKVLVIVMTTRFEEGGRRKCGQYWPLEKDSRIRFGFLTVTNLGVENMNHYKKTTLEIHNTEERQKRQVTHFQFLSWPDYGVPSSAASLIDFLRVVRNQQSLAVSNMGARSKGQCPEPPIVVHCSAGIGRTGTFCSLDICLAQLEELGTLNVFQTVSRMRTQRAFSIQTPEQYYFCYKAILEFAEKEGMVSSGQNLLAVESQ

Bacteria = test: Time-dependent irreversible inhibition of N-terminal His-tagged bacterial YOPH expressed in Escherichia coli BL21 (DE3) cells preincubated with enzyme followed by p-nitrophenyl phosphate substrate addition
[5] = molecular target: T5, Tyrosine-protein phosphatase non-receptor type 1 (Homo sapiens) (UniProt P18031); test: Time-dependent irreversible inhibition of N-terminal His-tagged PTP1B (unknown origin) expressed in Escherichia coli BL21 (DE3) cells preincubated with enzyme followed by p-nitrophenyl phosphate substrate addition
T5 sequence (whole entry): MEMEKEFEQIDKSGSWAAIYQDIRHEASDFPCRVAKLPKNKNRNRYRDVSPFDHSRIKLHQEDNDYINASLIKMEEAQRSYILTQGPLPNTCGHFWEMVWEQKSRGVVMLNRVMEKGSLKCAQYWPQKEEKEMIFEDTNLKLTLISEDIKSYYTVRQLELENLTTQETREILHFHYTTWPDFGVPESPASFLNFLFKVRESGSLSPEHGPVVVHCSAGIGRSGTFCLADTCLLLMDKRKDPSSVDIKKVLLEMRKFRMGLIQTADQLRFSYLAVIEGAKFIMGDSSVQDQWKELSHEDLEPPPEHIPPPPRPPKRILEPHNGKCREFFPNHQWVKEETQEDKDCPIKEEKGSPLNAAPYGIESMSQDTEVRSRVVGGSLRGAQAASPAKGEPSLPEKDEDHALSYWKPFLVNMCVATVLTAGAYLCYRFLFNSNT

[6] = molecular target: T6, Protein phosphatase 1A (Homo sapiens) (UniProt P35813); test: Time-dependent irreversible inhibition of N-terminal His-tagged PPM1A (unknown origin) expressed in Escherichia coli BL21 (DE3) cells at 80 uM preincubated with enzyme followed by p-nitrophenyl phosphate substrate addition
T6 sequence (whole entry): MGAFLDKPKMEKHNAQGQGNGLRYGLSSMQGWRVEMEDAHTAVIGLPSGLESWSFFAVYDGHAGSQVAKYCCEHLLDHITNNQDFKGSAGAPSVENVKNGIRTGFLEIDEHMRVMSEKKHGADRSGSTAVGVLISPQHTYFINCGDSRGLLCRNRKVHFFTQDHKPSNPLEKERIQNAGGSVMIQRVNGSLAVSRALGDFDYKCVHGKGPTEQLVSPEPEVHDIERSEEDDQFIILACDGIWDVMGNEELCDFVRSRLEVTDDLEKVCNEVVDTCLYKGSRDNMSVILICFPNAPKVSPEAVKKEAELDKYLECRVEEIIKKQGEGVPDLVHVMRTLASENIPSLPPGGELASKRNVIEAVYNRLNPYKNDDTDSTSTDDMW

[7] = molecular target: T7, Protein phosphatase 1B (Homo sapiens) (UniProt O75688); test: Time-dependent irreversible inhibition of N-terminal His-tagged PPM1B (unknown origin) expressed in Escherichia coli BL21 (DE3) cells at 80 uM preincubated with enzyme followed by p-nitrophenyl phosphate substrate addition
T7 sequence (whole entry): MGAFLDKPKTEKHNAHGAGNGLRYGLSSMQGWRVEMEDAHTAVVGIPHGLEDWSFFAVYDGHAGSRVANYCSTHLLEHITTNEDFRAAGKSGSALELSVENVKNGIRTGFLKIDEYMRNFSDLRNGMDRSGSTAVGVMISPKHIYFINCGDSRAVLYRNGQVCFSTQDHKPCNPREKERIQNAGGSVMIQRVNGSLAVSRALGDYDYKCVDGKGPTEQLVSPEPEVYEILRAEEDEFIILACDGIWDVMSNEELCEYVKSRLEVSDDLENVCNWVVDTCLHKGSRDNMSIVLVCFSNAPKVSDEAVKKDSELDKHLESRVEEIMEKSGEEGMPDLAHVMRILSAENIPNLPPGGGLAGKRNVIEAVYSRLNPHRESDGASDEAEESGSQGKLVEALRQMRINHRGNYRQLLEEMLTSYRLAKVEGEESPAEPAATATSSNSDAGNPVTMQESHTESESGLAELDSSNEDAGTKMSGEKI

[8] = molecular target: T8, Protein phosphatase 1G (Homo sapiens) (UniProt O15355); test: Time-dependent irreversible inhibition of N-terminal His-tagged PPM1G (unknown origin) expressed in Escherichia coli BL21 (DE3) cells at 80 uM preincubated with enzyme followed by p-nitrophenyl phosphate substrate addition
T8 sequence (whole entry): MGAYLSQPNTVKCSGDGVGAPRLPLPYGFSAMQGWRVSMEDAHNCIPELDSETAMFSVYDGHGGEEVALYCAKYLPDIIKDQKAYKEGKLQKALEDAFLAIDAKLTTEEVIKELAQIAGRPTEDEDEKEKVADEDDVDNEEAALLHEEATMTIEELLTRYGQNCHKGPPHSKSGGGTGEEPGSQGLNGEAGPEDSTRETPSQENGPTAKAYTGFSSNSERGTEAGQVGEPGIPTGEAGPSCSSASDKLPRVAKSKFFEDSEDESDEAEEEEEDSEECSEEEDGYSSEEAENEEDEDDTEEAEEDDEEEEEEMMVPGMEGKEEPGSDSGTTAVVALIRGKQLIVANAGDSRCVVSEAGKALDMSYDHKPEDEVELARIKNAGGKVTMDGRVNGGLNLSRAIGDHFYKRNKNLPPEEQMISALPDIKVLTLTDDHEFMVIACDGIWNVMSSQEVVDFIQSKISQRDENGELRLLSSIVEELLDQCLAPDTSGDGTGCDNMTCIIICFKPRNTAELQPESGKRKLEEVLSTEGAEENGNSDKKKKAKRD

[9] = molecular target: T2, Tyrosine-protein phosphatase non-receptor type 5 (Homo sapiens); test: (§2) Time-dependent irreversible inhibition of N-terminal His-tagged STEP catalytic domain (unknown origin) expressed in Escherichia coli BL21 (DE3) cells preincubated with enzyme followed by p-nitrophenyl phosphate substrate addition
[10] = molecular target: T1, Tyrosine-protein phosphatase non-receptor type 5; test: as §2
[11] = molecular target: T2, Tyrosine-protein phosphatase non-receptor type 5 (Homo sapiens)
Description: Time-dependent irreversible inhibition of N-terminal His-tagged STEP catalytic domain (unknown origin) expressed in Escherichia coli BL21 (DE3) cells at 100 uM preincubated with enzyme followed by p-nitrophenyl phosphate substrate addition

- IC50 [1]: > 300 µM
SMILES: Cc1ccc([N+](=O)[O-])cc1-c1ccc(/C=c2\sc3nc4ccccc4n3c2=O)o1

- inhibition [2]: Dose-dependent effect
- IC50 [1]: 8.3 µM
- K [3]: 0.0272 min⁻¹
- K [4]: 0.0463 min⁻¹
- K [5]: 0.0859 min⁻¹
- TDI [6]: Active
- TDI [7]: Active
- TDI [8]: Active
- K [9]: 0.0439 min⁻¹
- Kinact [9]: 0.068 s⁻¹
- Ki [10]: 21.6 µM
- TDI [11]: Active
SMILES: Cc1cc(/C=c2/sc3nc4ccccc4n3c2=O)c(C)n1-c1cccc(C(=O)O)c1
- K (Bacteria): 0.0486 min⁻¹

- IC50 [1]: > 300 µM
SMILES: O=C(CSc1nc2cc(Cl)ccc2o1)Nc1ccc(C(=O)O)cc1

- IC50 [1]: > 300 µM
SMILES: O=C(O)c1cc2ccoc2cc(C(=O)O)c1=O

- IC50 [1]: 273 µM
SMILES: O=C(O)c1ccc(N2C(=O)c3ccc(Br)cc3C2=O)cc1O

- IC50 [1]: > 300 µM
SMILES: COc1cc(/C=c2/sc3nc4ccccc4n3c2=O)cc(Cl)c1OCc1cccc(C(=O)O)c1

- IC50 [1]: > 300 µM
SMILES: Cc1cc2cc(OCC(=O)O)ccc2n1-c1ccc(Cl)cc1

- IC50 [1]: > 300 µM
SMILES: O=C(O)c1cccc(/C=c2/sc3nc4ccccc4n3c2=O)c1
